We go through four compounds from article PMC8843100, “Development of newly synthesised quinazolinone-based CDK2 inhibitors with potent efficacy against melanoma” (Journal of Enzyme Inhibition and Medicinal Chemistry, 2022).

Holding throughout (assay): NCI-60 single dose screen, sulforhodamine B
Format in all cases: cell-based, human

Assay [1] has as its system OVCAR-4. The note with it: Ovarian cancer OVCAR-4; single dose 10^−5 M. As to the method: (§1) In this research, all of the newly synthesised quinazolinones were subjected to in vitro anticancer screening by the National Cancer Institute (USA) against 60 different human cell lines including leukaemia, non-small cell lung cancer, colon cancer, CNS cancer, melanoma, ovarian cancer, renal cancer, prostate cancer, and breast cancer. The tested compounds were evaluated at a single dose (10^−5 M). […] Regarding the benzenesulfonamide counterparts, the introduction of an electron-withdrawing group on the benzenesulfonamide moiety increased the inhibitory activity on the glioblastoma cell line SNB-75 as depicted by the chloro derivative 5c (GI% = 63.09) which was higher than that of the unsubstituted derivative 5a (GI% = 40.06) and the methyl derivative 5b (GI% = 33.03).
(§2) 1. Cytotoxicity screening against a panel of 60 human tumor cell lines
(§3) All the compounds were selected for NCI-60 Human Tumor Cell Lines Screen by the Developmental Therapeutics Program (DTP) at the National Cancer Institute (NCI), Maryland, USA. The operation of this screen utilizes 60 different human tumor cell lines, representing leukemia, non-small-cell lung cancer, colon cancer, CNS cancer, melanoma, ovarian cancer, renal cancer, prostate cancer and breas t cancer.
(§4) The compounds were supplied as dry powder and a single concentration is tested in all 60 cell lines at a single dose of 10 µM solution in dimethyl sulfoxide (DMSO) using Sulforhodamine B assay. Briefly, cells are seeded in 96 well plates at an appropriate density and incubated for 1 day. After 1 day, some of the plates are processed to determine the density time zero. To the remaining plates, compounds are added at 10 µM concentration. Plates are incubated a further 2 days, then fixed and staine d with sulphorhodamine B. Growth inhibition is calculated relative to cells without drug treatment and the time zero control. The use of a time zero control allows the determination of cell kill as well as net growth inhibition. […]

For assay [2], the system named is K-562. The note with it: Leukaemia K-562; single dose 10^−5 M. The method, then:
as §1, §2, §3, §4

Assay [3] has as its system CCRF-CEM. The note with it: Leukaemia CCRF-CEM; single dose 10^−5 M. The method, then: as §1, §2, §3, §4
Assay [4] deals with 786-0. The settings on record: Renal cancer 786-0; single dose 10^−5 M. The method, then: as §1, §2, §3, §4
Assay [5] relates to SF-539. The note with it: CNS cancer SF-539; single dose 10^−5 M. The method, then: as §1, §2, §3, §4
For assay [6], the system named is MALME-3M. The settings on record: Melanoma MALME-3M; single dose 10^−5 M. As to the method:
as §1, §2, §3, §4

In assay [7] the test system is SK-MEL-2. The note with it: Melanoma SK-MEL-2; single dose 10^−5 M. As to the method:
as §1, §2, §3, §4

Assay [8] deals with SF-295. The note with it: CNS cancer SF-295; single dose 10^−5 M. As to the method:
as §1, §2, §3, §4

Assay [9] deals with M14. The note with it: Melanoma M14; single dose 10^−5 M. As to the method:
as §1, §2, §3, §4

For assay [10], the system named is UO-31. The note with it: Renal cancer UO-31; single dose 10^−5 M. The method, then:
as §1, §2, §3, §4

Assay [11] has as its system SN12C. The note with it: Renal cancer SN12C; single dose 10^−5 M. As to the method: as §1, §2, §3, §4
Assay [12] concerns RXF 393. The settings on record: Renal cancer RXF 393; single dose 10^−5 M. As to the method:
as §1, §2, §3, §4

Assay [13] relates to NCI-H522. The settings on record: Non-small cell lung cancer NCI-H522; single dose 10^−5 M. The method, then:
as §1, §2, §3, §4

The test system of assay [14] is KM12. The settings on record: Colon cancer KM12; single dose 10^−5 M. The method, then:
as §1, §2, §3, §4

For assay [15], the system named is OVCAR-5. The settings on record: Ovarian cancer OVCAR-5; single dose 10^−5 M. As to the method: as §1, §2, §3, §4
Assay [16] concerns DU-145. The note with it: Prostate cancer DU-145; single dose 10^−5 M. As to the method: as §1, §2, §3, §4
Assay [17] has as its system CAKI-1. The settings on record: Renal cancer CAKI-1; single dose 10^−5 M. The method, then:
as §1, §2, §3, §4

For assay [18], the system named is HCT-15. The note with it: Colon cancer HCT-15; single dose 10^−5 M. The method, then:
as §1, §2, §3, §4

Assay [19] deals with SNB-75. The settings on record: CNS cancer SNB-75; single dose 10^−5 M. The method, then:
as §1, §2, §3, §4

The test system of assay [20] is IGROV1. The note with it: Ovarian cancer IGROV1; single dose 10^−5 M. The method, then:
as §1, §2, §3
(§5) The compounds were supplied as dry powder and a single concentration is tested in all 60 cell lines at a single dose of 10 µM solution in dimethyl sulfoxide (DMSO) using Sulforhodamine B assay. Briefly, cells are seeded in 96 well plates at an appropriate density and incubated for 1 day. After 1 day, some of the plates are processed to determine the density time zero. To the remaining plates, compounds are added at 10 µM concentration. Plates are incubated a further 2 days, then fixed and staine d with sulphorhodamine B. Growth inhibition is calculated relative to cells without drug treatment and the time zero control. The use of a time zero control allows the determination of cell kill as well as net growth inhibition.
(§6) 2. Detection of IC50 against MDA-MB-435, SNB-75 cell lines and normal cell line WI -38.
(§7) Antiproliferative activities of 5c in melanoma cell line MDA-MB-435, glioblastoma cell line SNB-75 and normal cell line WI -38 and that of 8a in melanoma cell line MDA-MB-435 and normal cell line WI-38 were measured spectrophotometrically using in vitro MTT based toxicology assay kit (catalog no. M -5655, M-8910) (Sigma Aldrich), according to the manufacturer’s protocol. The three examined cell lin es were obtained from American Type Culture Collection (ATCC). Briefly, cells were platted (cells density 1.2 – 1.8 × 10,000 cells/well) in a volume of 100 µl complete growth medium + 100 μl of the tested compound per well in a 96-well plate for 48 h before the MTT assay. The cultures were removed from incubator into laminar flow hood then each vial of MTT [M-5655] should be reconstituted with 3 ml of medium or balanced salt solution without phenol red and serum. Reconstituted MTT was added in an amount equal to […]

Assay [21] has as its system MCF7. The note with it: Breast cancer MCF7; single dose 10^−5 M. As to the method: as §1, §2, §3, §5, §6, §7
In assay [22] the test system is HL-60(TB). The settings on record: Leukaemia HL-60(TB); single dose 10^−5 M. As to the method:
as §1, §2, §3, §5, §6, §7

For assay [23], the system named is MDA-MB-468. The note with it: Breast cancer MDA-MB-468; single dose 10^−5 M. The method, then:
as §1, §2, §3, §5, §6, §7

Consider `COc1ccc(NC(=O)CNn2c(COc3ccccc3)nc3ccccc3c2=O)cc1` [Compound 4b, N-(4-methoxyphenyl)-2-((4-oxo-2-(phenoxymethyl)quinazolin-3(4H)-yl)amino)acetamide], for which the “GI% at 10^−5 M” value in assay [1], in assay [2], in [3], in assay [4], in assay [5] and in assay [6] was “– (– means GI < 10%)” in each case. The “GI% at 10^−5 M” value in assay [7] is given as “– (– means GI < 10%)”; in [8] it was “– (– means GI < 10%)”; in [9], “– (– means GI < 10%)”; in [10], 15.77%; in assay [11], 12.37%; in assay [12] it was “– (– means GI < 10%)”. For the same compound, the “GI% at 10^−5 M” value in assay [13] was 12.54%; in [14], “– (– means GI < 10%)”; in assay [15] it was “– (– means GI < 10%)”; in [16] it was “– (– means GI < 10%)”; in [17], 21.63%; in assay [18], “– (– means GI < 10%)”. Moreover, the “GI% at 10^−5 M” value is 21.9% in [19]; 6.78% in assay [20]; 13.20% in assay [21]; “– (– means GI < 10%)” in assay [22]; “– (– means GI < 10%)” in assay [23].
With `O=c1c2ccccc2nc(COc2ccccc2)n1NS(=O)(=O)c1ccccc1` [Compound 5a, N-(4-oxo-2-(phenoxymethyl)quinazolin-3(4H)-yl)benzenesulfonamide], the “GI% at 10^−5 M” value in assay [1], in [2], in [3], in [4], in assay [5] and in assay [6] was “– (– means GI < 10%)” in each case. Also, the “GI% at 10^−5 M” value in assay [7] is on record as “– (– means GI < 10%)”; in assay [8], “– (– means GI < 10%)”; in [9], “– (– means GI < 10%)”; in [10], 18.13%; in assay [11] it was 11.46%; in [12] it was “– (– means GI < 10%)”. Further, the “GI% at 10^−5 M” value is “– (– means GI < 10%)” in assay [13]; “– (– means GI < 10%)” in [14]; “– (– means GI < 10%)” in [15]; “– (– means GI < 10%)” in [16]; 15.07% in assay [17]; “– (– means GI < 10%)” in assay [18]. For the same compound, the “GI% at 10^−5 M” value in assay [19] is listed as 40.06%; in [20], 16.06%; in [21] it was 14.31%; in [22] it was “– (– means GI < 10%)”; in [23], “– (– means GI < 10%)”.
With `COc1ccc(N2CCN(CC(=O)Nn3c(COc4ccccc4)nc4ccccc4c3=O)CC2)cc1` [Compound 8c, 2–(4-(4-methoxyphenyl)piperazin-1-yl)-N-(4-oxo-2-(phenoxymethyl)quinazolin-3(4H)-yl)acetamide], the “GI% at 10^−5 M” value in [1], in [2], in assay [3], in [4], in [5] and in assay [6] was “– (– means GI < 10%)” each time. Besides, the “GI% at 10^−5 M” value is on record as “– (– means GI < 10%)” in assay [7]; “– (– means GI < 10%)” in assay [8]; “– (– means GI < 10%)” in [9]; 10.03% in [10]; “– (– means GI < 10%)” in assay [11]; “– (– means GI < 10%)” in assay [12]. In addition, the “GI% at 10^−5 M” value in [13] is reported as 10.67%; in [14], “– (– means GI < 10%)”; in assay [15], “– (– means GI < 10%)”; in assay [16], “– (– means GI < 10%)”; in [17], “– (– means GI < 10%)”; in [18], “– (– means GI < 10%)”. Further, the “GI% at 10^−5 M” value in assay [19] is 26.47%; in assay [20], “– (– means GI < 10%)”; in assay [21] it was “– (– means GI < 10%)”; in assay [22], “– (– means GI < 10%)”; in assay [23], “– (– means GI < 10%)”.
`O=c1c2ccccc2nc(COc2ccccc2)n1NS(=O)(=O)c1ccc(Cl)cc1` [Compound 5c, 4-chloro-N-(4-oxo-2-(phenoxymethyl)quinazolin-3(4H)-yl)benzenesulfonamide]: the “GI% at 10^−5 M” value is “– (– means GI < 10%)” in assay [1]; 52.75% in assay [2]; “– (– means GI < 10%)” in [3]; “– (– means GI < 10%)” in assay [4]; 13.14% in assay [5]; 17.90% in assay [6]. The “GI% at 10^−5 M” value is 25.29% in assay [7]; “– (– means GI < 10%)” in assay [8]; 25.84% in assay [9]; 37.25% in [10]; 23.41% in assay [11]; “– (– means GI < 10%)” in [12]. The “GI% at 10^−5 M” value in assay [13] is on record as 30.63%; in assay [14], 44.77%; in assay [15], “– (– means GI < 10%)”; in [16], “– (– means GI < 10%)”; in assay [17], 26.93%; in assay [18] it was 45.60%. The “GI% at 10^−5 M” value in [19] stood at 63.09%; in [20], 38.26%; in [21] it was 58.11%; in assay [22] it was 24.32%; in [23] it was 59.61%.
